Several values for one entry are separate records, joined by “and”; a condition that tells them apart may be missing. Equal values may be shown once. Read-outs that look alike come from different tables or passages of the source.
Assays:
P. aeruginosa PA 107092 [1] = experiment: Time-kill assay; format: cell-based, Pseudomonas aeruginosa
Procedure: To study the time-dependent killing effects of the drug combinations, the time-kill kinetics were assessed. The time-kill assay was performed following the 8 μM (2 μg/mL) concentration of avibactam used in the checkerboard assay. […] This concentration also corresponds to the susceptibility breakpoint of both β-lactams.
For the preparation of the bacterial solution, an overnight grown culture was diluted in 0.85% saline solution and adjusted to 0.5 McFarland turbidity. […] The culture tubes were incubated at 37 °C, shaking at 250 rpm. At the appointed time intervals, a 100-μL aliquot was taken from each tube, serially diluted in phosphate-buffered saline (PBS) and plated on LB agar plates. The plates were incubated at 37 °C, and bacterial colonies were counted after 18 h. The bactericidal or bacteriostatic activity is determined based on the decrease in CFU over the time period. Bactericidal activity corresponds to ≥3 log10 reduction in CFU/mL, while bacteriostatic activity corresponds to <3 log10 reduction in CFU/mL.

A. baumannii 92247 = experiment: microbe, parasite or virus in culture; format: cell-based, Acinetobacter baumannii; details: one value per checkerboard plate; for MIC: Acinetobacter baumannii, 92247, agent alone; for MIC alone: agent alone
Procedure: (§1) The adjuvant properties of the guanidinylated polymyxins were evaluated using the checkerboard assay as previously described. The bacterial solution was prepared as described in the antimicrobial susceptibility assay. The antibiotic of interest and the adjuvant were serially diluted two-fold along the x- and y-axis on a 96-well plate, respectively, resulting in varying concentrations of both agents in each well. Equal volumes of bacterial solution were added to the designated wells. The well consisting of bacterial solution served as the positive control, while the wells containing only media served as the negative control. The plate was then incubated at 37 °C for 18 h. After incubation, an Emax Plus microplate reader (Molecular Devices, Union City, CA, USA) was used to measure the OD at a wavelength of 590 nm to confirm the turbidity. The fractional inhibitory concentration (FIC) index was then determined to establish the relationship between the antibiotic and adjuvant. The FIC index corresponds to the sum of the FICs of the antibiotic and adjuvant. The FIC of each agent is calculated by dividing its MIC when it is used in combination by its MIC when used alone. FIC indices ≤0.5, 0.5 < x ≤ 4 and >4 indicate synergy, additivity and antagonism, respectively.

A. baumannii ATCC 17978 = experiment: microbe, parasite or virus in culture; format: cell-based, Acinetobacter baumannii; details: for MIC: Acinetobacter baumannii, ATCC17978, 18 h, agent alone, one value per checkerboard plate, read-out: MIC alone
Procedure: as §1

A. baumannii AB027 = experiment: microbe, parasite or virus in culture; format: cell-based, Acinetobacter baumannii; details: one value per checkerboard plate; for MIC: Acinetobacter baumannii, AB027, agent alone; for MIC alone: agent alone
Procedure: as §1

A. baumannii AB031 = experiment: Checkerboard assay; format: cell-based, Acinetobacter baumannii; details: one value per checkerboard plate; for MIC: Acinetobacter baumannii, AB031, agent alone
Procedure: as §1

E. coli ATCC 25922 = experiment: microbe, parasite or virus in culture; format: cell-based, Escherichia coli; set-up: key to FIC index antibiotic + GCol / FIC index antibiotic + GPMB: sum of FICs; ≤0.5 synergy, 0.5–4 additivity, >4 antagonism; details: for MIC: Escherichia coli, ATCC25922, 18 h, agent alone, one value per checkerboard plate, read-out: MIC alone
Procedure: as §1

P. aeruginosa 101243 = experiment: Checkerboard assay; format: cell-based, Pseudomonas aeruginosa; details: one value per checkerboard plate; for MIC: Pseudomonas aeruginosa, 101243, agent alone; for MIC alone: agent alone
Procedure: as §1

[2] = test system: P. aeruginosa P264-104354; experiment: Checkerboard assay; format: cell-based, Pseudomonas aeruginosa; details: one value per checkerboard plate; for MIC: Pseudomonas aeruginosa, P264104354, agent alone
Procedure: as §1

P. aeruginosa P259-96918 = experiment: Checkerboard assay; format: cell-based, Pseudomonas aeruginosa; details: Pseudomonas aeruginosa, P25996918; agent alone, one value per checkerboard plate
Procedure: as §1

[3] = test system: P. aeruginosa P262-101856; experiment: Checkerboard assay; format: cell-based, Pseudomonas aeruginosa; details: one value per checkerboard plate; for MIC: Pseudomonas aeruginosa, P262101856, agent alone
Procedure: as §1

P. aeruginosa 114228 = experiment: microbe, parasite or virus in culture; format: cell-based, Pseudomonas aeruginosa; details: one value per checkerboard plate; for MIC: Pseudomonas aeruginosa, 114228, agent alone
Procedure: as §1

P. aeruginosa PAO1 = experiment: microbe, parasite or virus in culture; format: cell-based, Pseudomonas aeruginosa; details: for MIC: Pseudomonas aeruginosa, PAO1, 18 h, agent alone, one value per checkerboard plate, read-out: MIC alone
Procedure: as §1

E. coli 107115 = experiment: microbe, parasite or virus in culture; format: cell-based, Escherichia coli; details: one value per checkerboard plate; for MIC: Escherichia coli, 107115, agent alone
Procedure: as §1

P. aeruginosa PA 109084 = format: cell-based, Pseudomonas aeruginosa
Procedure: as §1

P. aeruginosa PA 88949 = format: cell-based, Pseudomonas aeruginosa; details: one value per checkerboard plate
Procedure: as §1

P. aeruginosa PA 107092 [4] = format: cell-based, Pseudomonas aeruginosa
Procedure: as §1

P. aeruginosa PA 86052 = format: cell-based, Pseudomonas aeruginosa; details: one value per checkerboard plate
Procedure: as §1

E. cloacae 121187 = experiment: microbe, parasite or virus in culture; format: cell-based, Enterobacter cloacae; details: one value per checkerboard plate; for MIC: Enterobacter cloacae, 121187, agent alone; for MIC alone: agent alone
Procedure: as §1

A. baumannii 110193 = experiment: microbe, parasite or virus in culture; format: cell-based, Acinetobacter baumannii; details: one value per checkerboard plate; for MIC: Acinetobacter baumannii, 110193, agent alone; for MIC alone: agent alone
Procedure: as §1

E. coli 94474 = experiment: Checkerboard assay; format: cell-based, Escherichia coli; details: one value per checkerboard plate; for MIC: Escherichia coli, 94474, agent alone
Procedure: as §1

E. coli 94393 = experiment: Checkerboard assay; format: cell-based, Escherichia coli; details: one value per checkerboard plate; for MIC: Escherichia coli, 94393, agent alone
Procedure: as §1

K. pneumoniae 113250 = experiment: Checkerboard assay; format: cell-based, Klebsiella pneumoniae; details: one value per checkerboard plate; for MIC: Klebsiella pneumoniae, 113250, agent alone; for MIC alone: agent alone
Procedure: as §1

K. pneumoniae 113254 = experiment: Checkerboard assay; format: cell-based, Klebsiella pneumoniae; details: one value per checkerboard plate; for MIC: Klebsiella pneumoniae, 113254, agent alone
Procedure: as §1

E. cloacae 118564 = experiment: Checkerboard assay; format: cell-based, Enterobacter cloacae; details: Enterobacter cloacae, 118564; agent alone, one value per checkerboard plate
Procedure: as §1

[5] = one value per checkerboard plate

## C[C@H]1[C@H](NC(=O)/C(=N\OC(C)(C)C(=O)O)c2csc(N)n2)C(=O)N1S(=O)(=O)O [Aztreonam]
P. aeruginosa PA 107092 [1]; monotherapy, 8 μg/mL
  log10 increase (bacterial growth) over 24 h: 2 to 3 log10
A. baumannii 92247
  MIC: 128 µg/mL
  MIC alone: 256 µg/mL
A. baumannii ATCC 17978
  Absolute MIC of antibiotic at 2 μg/mL GCol: 64 µg/mL
  Absolute MIC of antibiotic at 2 μg/mL GPMB: 32 µg/mL
  MIC: 64 µg/mL
A. baumannii AB027
  MIC: 1020 µg/mL
A. baumannii AB031
  MIC: 64 µg/mL
E. coli ATCC 25922
  Absolute MIC of antibiotic at 2 μg/mL GCol: 0.031 µg/mL
  Absolute MIC of antibiotic at 2 μg/mL GPMB: 0.016 µg/mL
  FIC index antibiotic + GCol: 0.188
  MIC: 0.25 µg/mL
P. aeruginosa 101243
  MIC: 16 µg/mL
  MIC alone: 32 µg/mL
[2]
  MIC: 64 µg/mL
[2]; agent alone
  MIC alone: 32 µg/mL
P. aeruginosa P259-96918
  MIC: 32 µg/mL
[3]
  MIC: 32 µg/mL
[3]; agent alone
  MIC alone: 64 µg/mL
P. aeruginosa 114228
  MIC: 16 µg/mL
P. aeruginosa 114228; agent alone
  MIC alone: 8 µg/mL
P. aeruginosa PAO1
  Absolute MIC of antibiotic at 4 μg/mL GCol: 0.5 µg/mL
  Absolute MIC of antibiotic at 4 μg/mL GPMB: 0.25 µg/mL
  MIC: 4 µg/mL
E. coli 107115
  MIC: 1020 µg/mL
P. aeruginosa PA 109084; [5]
  MIC antibiotic alone: 64 µg/mL
P. aeruginosa PA 109084; plates with 8 μM avibactam
  MIC antibiotic alone: 8 µg/mL
P. aeruginosa PA 88949
  MIC antibiotic alone: 16 µg/mL
P. aeruginosa PA 107092 [4]; [5]
  MIC antibiotic alone: 32 µg/mL and 64 µg/mL
P. aeruginosa PA 107092 [4]; plates with 8 μM avibactam
  MIC antibiotic alone: 16 µg/mL and 8 µg/mL
P. aeruginosa PA 86052
  MIC antibiotic alone: 64 µg/mL and 32 µg/mL

## CC[C@H]1OC(=O)[C@H](C)[C@@H](O[C@H]2C[C@@](C)(OC)[C@@H](O)[C@H](C)O2)[C@H](C)[C@@H](O[C@@H]2O[C@H](C)C[C@H](N(C)C)[C@H]2O)[C@](C)(O)C[C@@H](C)C(=O)[C@H](C)[C@@H](O)[C@]1(C)O [Erythromycin]
E. cloacae 121187
  MIC: 1020 µg/mL
  MIC alone: 512 µg/mL
A. baumannii 110193
  MIC: 2 µg/mL
  MIC alone: 4 µg/mL
A. baumannii 92247
  MIC: 8 µg/mL
A. baumannii ATCC 17978
  Absolute MIC of antibiotic at 2 μg/mL GCol: 32 µg/mL
  Absolute MIC of antibiotic at 2 μg/mL GPMB: 0.5 µg/mL
  MIC: 32 µg/mL
A. baumannii AB027
  MIC: 8 µg/mL
  MIC alone: 4 µg/mL
A. baumannii AB031
  MIC: 16 µg/mL
E. coli 94474
  MIC: 64 µg/mL
E. coli 94393
  MIC: 64 µg/mL
E. coli ATCC 25922
  Absolute MIC of antibiotic at 2 μg/mL GCol: 0.25 µg/mL
  MIC: 32 µg/mL
P. aeruginosa 101243
  MIC: 1020 µg/mL
[3]
  MIC: 2050 µg/mL
P. aeruginosa 114228
  MIC: 64 µg/mL
P. aeruginosa PAO1
  Absolute MIC of antibiotic at 4 μg/mL GCol: 16 µg/mL
  Absolute MIC of antibiotic at 4 μg/mL GPMB: 2 µg/mL
E. coli 107115
  MIC: 2050 µg/mL
K. pneumoniae 113250
  MIC: 32 µg/mL
  MIC alone: 64 µg/mL
K. pneumoniae 113254
  MIC: 64 µg/mL

## CO[C@H]1/C=C/O[C@@]2(C)Oc3c(C)c(O)c4c(O)c(c(/C=N/N5CCN(C)CC5)c(O)c4c3C2=O)NC(=O)/C(C)=C\C=C\[C@H](C)[C@H](O)[C@@H](C)[C@@H](O)[C@@H](C)[C@H](OC(C)=O)[C@@H]1C [Rifampicin]
E. cloacae 118564
  MIC: 8 µg/mL
E. cloacae 121187
  MIC: 1 µg/mL
  MIC alone: 2 µg/mL
A. baumannii 110193
  MIC: 2 µg/mL
  MIC alone: 1 µg/mL
A. baumannii 92247
  MIC: 1 µg/mL
  MIC alone: 0.5 µg/mL
A. baumannii ATCC 17978
  Absolute MIC of antibiotic at 2 μg/mL GCol: 0.0625 µg/mL
  Absolute MIC of antibiotic at 2 μg/mL GPMB: 0.004 µg/mL
  FIC index antibiotic + GPMB: 0.066
  MIC: 2 µg/mL
A. baumannii ATCC 17978; at 2 μg/mL GCol
  Fold-potentiation of antibiotic: 32
A. baumannii ATCC 17978; at 2 μg/mL GPMB
  Fold-potentiation of antibiotic: 512
A. baumannii AB027
  MIC: 2 µg/mL
  MIC alone: 1 µg/mL
A. baumannii AB031
  MIC: 2 µg/mL
A. baumannii AB031; agent alone
  MIC alone: 1 µg/mL
E. coli 94474
  MIC: 8 µg/mL
E. coli 94474; agent alone
  MIC alone: 4 µg/mL
E. coli 94393
  MIC: 8 µg/mL
E. coli 94393; agent alone
  MIC alone: 4 µg/mL
E. coli ATCC 25922
  Absolute MIC of antibiotic at 2 μg/mL GCol: 0.008 µg/mL
  Absolute MIC of antibiotic at 2 μg/mL GPMB: 0.008 µg/mL
  FIC index antibiotic + GCol: 0.023
  FIC index antibiotic + GPMB: 0.07
  MIC: 2 µg/mL
E. coli ATCC 25922; at 2 μg/mL GCol
  Fold-potentiation of antibiotic: 256
E. coli ATCC 25922; at 2 μg/mL GPMB
  Fold-potentiation of antibiotic: 256
P. aeruginosa 101243
  MIC: 2 µg/mL
  MIC alone: 4 µg/mL
[2]
  MIC: 16 µg/mL
P. aeruginosa P259-96918
  MIC: 16 µg/mL
[3]
  MIC: 512 µg/mL
P. aeruginosa 114228
  MIC: 16 µg/mL
P. aeruginosa PAO1
  Absolute MIC of antibiotic at 4 μg/mL GCol: 0.0625 µg/mL
  Absolute MIC of antibiotic at 4 μg/mL GPMB: 0.03125 µg/mL
  MIC: 16 µg/mL
P. aeruginosa PAO1; at 4 μg/mL GCol
  Fold-potentiation of antibiotic: 256
P. aeruginosa PAO1; at 4 μg/mL GPMB
  Fold-potentiation of antibiotic: 512
E. coli 107115
  MIC: 32 µg/mL
E. coli 107115; agent alone
  MIC alone: 16 µg/mL
K. pneumoniae 113250
  MIC: 16 µg/mL
  MIC alone: 32 µg/mL
K. pneumoniae 113254
  MIC: 8 µg/mL
K. pneumoniae 113254; agent alone
  MIC alone: 16 µg/mL

## NC(=O)[C@@H]1CC[C@@H]2CN1C(=O)N2OS(=O)(=O)O [avibactam]
P. aeruginosa PA 107092 [1]; ceftazidime 8 μg/mL + GCol 2 μM or avibactam 8 μM
  time-kill effect of dual therapy with ceftazidime: bacteriostatic effect

— publication PMC9598282 (Antibiotics, 2022)
